Reference: patent publication US12668589B2, “N-formamidopyrazoline derivative as P2X3 receptor antagonist and use thereof” (HANGZHOU WESTAN PHARMACEUTICAL TECHNOLOGY CO., LTD, priority 2020, dated 2026)

What was measured:
gpP2X3 = molecular target: T1, gpP2X3 (Cavia porcellus, UniProt H0VWY5); assay: Inhibitory activity against P2X3 in guinea pigs (electrophysiological method); assay type: cell-based; conditions: guinea pig P2X3, electrophysiological method
T1 sequence (H0VWY5 1-391): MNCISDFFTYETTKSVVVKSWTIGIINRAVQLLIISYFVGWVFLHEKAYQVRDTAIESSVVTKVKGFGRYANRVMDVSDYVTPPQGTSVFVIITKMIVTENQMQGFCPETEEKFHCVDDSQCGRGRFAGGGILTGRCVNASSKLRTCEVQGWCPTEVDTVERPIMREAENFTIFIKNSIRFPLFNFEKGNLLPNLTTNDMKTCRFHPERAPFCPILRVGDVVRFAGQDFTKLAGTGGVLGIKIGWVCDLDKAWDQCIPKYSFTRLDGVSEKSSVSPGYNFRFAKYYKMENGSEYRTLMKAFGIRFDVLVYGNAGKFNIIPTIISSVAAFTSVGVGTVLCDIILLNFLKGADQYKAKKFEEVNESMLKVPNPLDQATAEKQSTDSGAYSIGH

human P2X4 = molecular target: T2, human P2X4 (Homo sapiens, UniProt Q99571); assay: Inhibitory activity against human P2X4 (electrophysiological method); assay type: cell-based; conditions: read-out: hP2X4 (IC50)
T2 construct: expressed in transfected cells; host or cells: HEK293
T2 sequence (Q99571 1-388): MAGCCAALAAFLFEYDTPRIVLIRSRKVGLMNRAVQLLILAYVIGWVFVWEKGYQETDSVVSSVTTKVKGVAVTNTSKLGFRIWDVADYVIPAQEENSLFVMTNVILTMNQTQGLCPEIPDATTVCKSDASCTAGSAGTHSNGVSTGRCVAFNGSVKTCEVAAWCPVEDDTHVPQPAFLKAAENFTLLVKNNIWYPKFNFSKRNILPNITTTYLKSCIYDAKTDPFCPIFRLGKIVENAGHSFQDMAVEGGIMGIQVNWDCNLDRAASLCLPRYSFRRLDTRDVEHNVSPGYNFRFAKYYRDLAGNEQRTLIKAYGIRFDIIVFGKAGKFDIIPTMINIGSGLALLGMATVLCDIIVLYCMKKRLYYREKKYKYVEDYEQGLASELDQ

human P2X2/3 = molecular target: T3, human P2X2/3 (Homo sapiens, UniProt P56373+Q9UBL9); assay: Inhibitory activity against human P2X2/3 (electrophysiological method); assay type: cell-based; conditions: read-out: hP2X2/3 (IC50)
T3 construct: expressed in transfected cells; host or cells: HEK293
T3 sequence (P56373 1-397): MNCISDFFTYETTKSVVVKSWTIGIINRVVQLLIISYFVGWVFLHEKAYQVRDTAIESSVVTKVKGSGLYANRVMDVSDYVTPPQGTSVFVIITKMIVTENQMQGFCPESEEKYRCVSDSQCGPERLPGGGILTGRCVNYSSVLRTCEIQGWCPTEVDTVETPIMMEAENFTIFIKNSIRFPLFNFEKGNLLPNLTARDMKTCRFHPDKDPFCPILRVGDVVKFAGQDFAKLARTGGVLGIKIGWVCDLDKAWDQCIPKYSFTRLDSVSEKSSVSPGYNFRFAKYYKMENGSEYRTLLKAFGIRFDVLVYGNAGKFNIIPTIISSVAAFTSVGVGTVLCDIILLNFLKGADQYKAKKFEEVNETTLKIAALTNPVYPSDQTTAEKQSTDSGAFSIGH
T3 sequence (Q9UBL9 1-471): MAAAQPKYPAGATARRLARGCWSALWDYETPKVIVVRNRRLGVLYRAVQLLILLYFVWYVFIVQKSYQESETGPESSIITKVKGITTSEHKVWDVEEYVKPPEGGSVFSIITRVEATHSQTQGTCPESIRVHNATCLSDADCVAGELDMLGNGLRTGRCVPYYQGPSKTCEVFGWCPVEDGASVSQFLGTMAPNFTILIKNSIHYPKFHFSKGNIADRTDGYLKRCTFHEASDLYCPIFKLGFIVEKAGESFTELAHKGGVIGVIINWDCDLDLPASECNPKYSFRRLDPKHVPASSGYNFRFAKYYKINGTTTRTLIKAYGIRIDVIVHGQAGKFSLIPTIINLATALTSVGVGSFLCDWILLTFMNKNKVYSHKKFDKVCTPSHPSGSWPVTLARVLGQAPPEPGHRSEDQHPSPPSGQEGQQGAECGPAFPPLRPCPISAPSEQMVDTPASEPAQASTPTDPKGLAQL

human P2X3 = molecular target: T4, human P2X3 (Homo sapiens, UniProt P56373); assay: cell-based
T4 sequence (P56373 1-397): T3 sequence (P56373 1-397)

IC50 (gpP2X3) | IC50 (human P2X4) | IC50 (human P2X2/3) | IC50 (human P2X3) | SMILES
421 nM | – | – | – | CCOC(=O)N(C)[C@H]1CN(C(=O)N[C@H](C)c2cnc(C(F)(F)F)nc2)N=C1c1ccc(C)cc1 [Compound 4, (S)-4-(N-methyl-N-ethoxycarbonylamino)-3-(4-methylphenyl)-N-((R)-1-(2-(trifluoromethyl)pyrimidin-5-yl)ethyl)-4,5-dihydro-1H-pyrazol-1-carboxamide]
297 nM | > 20000 nM | 2420 nM | 56 nM | Cc1ccc(C2=NN(C(=O)N[C@H](C)c3ccc(C(F)(F)F)nc3)C[C@@H]2N2CCOC2=O)cc1 [Compound 22]
